Data from patent EP4603105A1, “PHARMACEUTICAL COMPOSITION CONTAINING CYCLIC COMPOUND HAVING SELECTIVE KRAS INHIBITORY EFFECT AGAINST HRAS AND NRAS” (CHUGAI SEIYAKU KABUSHIKI KAISHA, priority 2022, dated 2024).
pIC50, pKd: −log10 of the molar value.

Experiments:
[1] = molecular target: GDP-bound KRAS wild-type protein (Homo sapiens, UniProt P01116); experiment: Binding to KRAS by surface plasmon resonance (SPR), dissociation constant KD; settings: 1:1 binding model
Procedure, shortened: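 Read-out is KD from 1:1 fitting of single-cycle kinetics sensorgrams, blank-cycle and reference-surface corrected. Proteins were GDP-loaded, biotinylated Avi-fusions freshly captured each cycle at roughly 100–300 RU. Runs were at 30°C in HBS pH 7.4 with MgCl2, GDP and 4% DMSO.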

[2] = molecular target: GDP-bound NRAS wild-type protein (Homo sapiens, UniProt P01111); experiment: Binding to NRAS by surface plasmon resonance (SPR), KD and KD ratio to KRAS; settings: ratio of KD for GDP-bound NRAS wild-type protein to KD for KRAS
Chain of GDP-bound NRAS wild-type protein (P01111 whole entry): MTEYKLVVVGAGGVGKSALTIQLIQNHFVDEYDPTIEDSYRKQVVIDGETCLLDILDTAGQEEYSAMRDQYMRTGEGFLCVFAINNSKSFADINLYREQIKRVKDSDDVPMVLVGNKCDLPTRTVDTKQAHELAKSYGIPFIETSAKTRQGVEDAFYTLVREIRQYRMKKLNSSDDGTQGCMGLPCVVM
Procedure, shortened: (§1)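 Biotinylated GDP-bound RAS was captured at about 100–300 RU. Running buffer: HBS pH 7.4, 10 mM MgCl2, 10 µM GDP, 1 mM DTT, 0.01% Tween 20, 4% DMSO.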

HRAS wild-type protein = HRAS wild-type protein (Homo sapiens, UniProt P01112); experiment: Binding to HRAS by surface plasmon resonance (SPR), KD and KD ratio to KRAS; settings: ratio of KD for HRAS wild-type protein to KD for KRAS
Chain of HRAS wild-type protein (P01112 whole entry): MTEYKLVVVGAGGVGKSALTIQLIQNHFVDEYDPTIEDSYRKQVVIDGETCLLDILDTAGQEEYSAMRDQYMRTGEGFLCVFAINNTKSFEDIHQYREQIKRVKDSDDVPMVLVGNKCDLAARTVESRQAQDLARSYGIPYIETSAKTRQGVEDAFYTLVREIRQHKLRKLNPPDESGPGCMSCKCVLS
Procedure, shortened: as §1

[3] = tested on: human lung cancer strain NCI-H441; experiment: NCI-H441 cell proliferation inhibitory activity (CellTiter-Glo, 4 days); assay type: cell-based; settings: NCI-H441 cells, 4 days, read-out: NCl-H441 IC50
Procedure, shortened: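 Step one: dispense the test compound in serial DMSO dilutions. Step three: add the reagent and measure […].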

Chain of GDP-bound KRAS wild-type protein (P01116 1-188 isoform P01116-2): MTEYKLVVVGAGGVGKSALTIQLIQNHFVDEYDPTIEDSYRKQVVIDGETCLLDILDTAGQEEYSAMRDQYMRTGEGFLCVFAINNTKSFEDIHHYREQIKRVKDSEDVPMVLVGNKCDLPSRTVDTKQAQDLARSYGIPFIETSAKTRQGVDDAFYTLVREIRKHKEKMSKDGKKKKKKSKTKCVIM

Compound: CCC[C@H]1C(=O)N[C@@H]([C@@H](C)CC)C(=O)N(C2CC2)CC(=O)N(C)[C@H]2C/C=C\CCN(C2=O)[C@@H](CC2CCCCC2)C(=O)N(C)CC(=O)N[C@@H](CCc2ccc(C(F)(F)F)c(OC)c2)C(=O)N2C[C@@H](C)C[C@H]2C(=O)N(C)C2(CCC2)C(=O)N(C)[C@@H](C2CCCC2)C(=O)N(C)[C@H](C(=O)N(C)C)CC(=O)N1C [PP2372]
- pKd [1]: 9.10
- NRAS /KRAS [2]: A (a compound having 10 or more and less than 20 is denoted as A)
- HRAS /KRAS (HRAS wild-type protein): B (a compound having 3 or more and less than 10 is denoted as B)
- pIC50 [3]: 8.48

Compound: CCC[C@H]1C(=O)N[C@@H]([C@@H](C)CC)C(=O)N2CCC[C@H]2C(=O)N(C)[C@H]2C/C=C\CCN(C2=O)[C@@H](CC2CCCCC2)C(=O)N(C)CC(=O)N[C@@H](CCc2ccc(C(F)(F)F)c(OC)c2)C(=O)N2C[C@@H](C)C[C@H]2C(=O)N(C)C2(CCC2)C(=O)N(C)[C@@H](C2CCCC2)C(=O)N(C)[C@H](C(=O)N(C)C)CC(=O)N1C [PP2374]
- pKd [1]: 9.07
- NRAS /KRAS [2]: A (a compound having 10 or more and less than 20 is denoted as A)
- HRAS /KRAS (HRAS wild-type protein): A (a compound having 10 or more and less than 20 is denoted as A)
- pIC50 [3]: 7.17

Compound: CCOC[C@H]1C(=O)N[C@@H]([C@@H](C)CC)C(=O)N2CCC[C@H]2C(=O)N(C)[C@H]2C/C=C\CCN(C2=O)[C@@H](CC2CCCCC2)C(=O)N(C)CC(=O)N[C@@H](CCc2ccc(C(F)(F)F)c(OC)c2)C(=O)N2C[C@@H](C)C[C@H]2C(=O)N(C)C2(CCC2)C(=O)N(C)[C@@H](C2CCCC2)C(=O)N(C)[C@H](C(=O)N(C)C)CC(=O)N1C [PP2375]
- pKd [1]: 8.96
- NRAS /KRAS [2]: A (a compound having 10 or more and less than 20 is denoted as A)
- HRAS /KRAS (HRAS wild-type protein): B (a compound having 3 or more and less than 10 is denoted as B)
- pIC50 [3]: 6.77

Compound: CCC[C@H]1C(=O)N[C@@H]([C@@H](C)CC)C(=O)N(C2CC2)CC(=O)N(C)[C@H]2C/C=C\CCN(C2=O)[C@@H](CC2CCC(F)(F)CC2)C(=O)N(C)CC(=O)N[C@@H](CCc2ccc(C(F)(F)F)c(OC)c2)C(=O)N2C[C@@H](C)C[C@H]2C(=O)N(C)C2(CCC2)C(=O)N(C)[C@@H](C2CCCC2)C(=O)N(C)[C@H](C(=O)N(C)C)CC(=O)N1C [PP2378]
- pKd [1]: 9.06
- NRAS /KRAS [2]: B (a compound having 3 or more and less than 10 is denoted as B)
- HRAS /KRAS (HRAS wild-type protein): A (a compound having 10 or more and less than 20 is denoted as A)
- pIC50 [3]: 7.32

Compound: CCCOC[C@H]1C(=O)N[C@@H]([C@@H](C)CC)C(=O)N(C2CC2)CC(=O)N(C)[C@H]2C/C=C\CCN(C2=O)[C@@H](CC2CCC(F)(F)CC2)C(=O)N(C)CC(=O)N[C@@H](CCc2ccc(C(F)(F)F)c(OC)c2)C(=O)N2C[C@@H](C)C[C@H]2C(=O)N(C)C2(CCC2)C(=O)N(C)[C@@H](C2CCCC2)C(=O)N(C)[C@H](C(=O)N(C)C)CC(=O)N1C [PP2379]
- pKd [1]: 9.12
- NRAS /KRAS [2]: A (a compound having 10 or more and less than 20 is denoted as A)
- HRAS /KRAS (HRAS wild-type protein): A (a compound having 10 or more and less than 20 is denoted as A)
- pIC50 [3]: 8.66

Compound: CCC[C@H]1C(=O)N[C@@H]([C@@H](C)CC)C(=O)N2CCC[C@H]2C(=O)N(C)[C@H]2C/C=C\CCN(C2=O)[C@@H](CC2CCC(F)(F)CC2)C(=O)N(C)CC(=O)N[C@@H](CCc2ccc(C(F)(F)F)c(OC)c2)C(=O)N2C[C@@H](C)C[C@H]2C(=O)N(C)C2(CCC2)C(=O)N(C)[C@@H](C2CCCC2)C(=O)N(C)[C@H](C(=O)N(C)C)CC(=O)N1C [PP2380]
- pKd [1]: 9.07
- NRAS /KRAS [2]: A (a compound having 10 or more and less than 20 is denoted as A)
- HRAS /KRAS (HRAS wild-type protein): A (a compound having 10 or more and less than 20 is denoted as A)
- pIC50 [3]: 8.68

Compound: CCCOC[C@H]1C(=O)N[C@@H]([C@@H](C)CC)C(=O)N2CCC[C@H]2C(=O)N(C)[C@H]2C/C=C\CCN(C2=O)[C@@H](CC2CCC(F)(F)CC2)C(=O)N(C)CC(=O)N[C@@H](CCc2ccc(C(F)(F)F)c(OC)c2)C(=O)N2C[C@@H](C)C[C@H]2C(=O)N(C)C2(CCC2)C(=O)N(C)[C@@H](C2CCCC2)C(=O)N(C)[C@H](C(=O)N(C)C)CC(=O)N1C [PP2381]
- pKd [1]: 9.03
- NRAS /KRAS [2]: A (a compound having 10 or more and less than 20 is denoted as A)
- HRAS /KRAS (HRAS wild-type protein): A (a compound having 10 or more and less than 20 is denoted as A)
- pIC50 [3]: 8.49

Compound: CCC[C@H]1C(=O)N[C@@H]([C@@H](C)CC)C(=O)N(C)CC(=O)N(C)[C@H]2C/C=C\CCN(C2=O)[C@@H](Cc2ccc(C(F)(F)F)cc2)C(=O)N(C)CC(=O)N[C@@H](CCc2ccc(C(F)(F)F)c(OC)c2)C(=O)N2C[C@H](OCC)C[C@H]2C(=O)N(C)C2(CCC2)C(=O)N(C)[C@@H](C(CC)CC)C(=O)N(C)[C@H](C(=O)N(C)C)CC(=O)N1C [PP2382]
- pKd [1]: 9.92
- NRAS /KRAS [2]: A (a compound having 10 or more and less than 20 is denoted as A)
- HRAS /KRAS (HRAS wild-type protein): A (a compound having 10 or more and less than 20 is denoted as A)
- pIC50 [3]: 8.34

Compound: CCOC[C@H]1C(=O)N[C@@H]([C@@H](C)CC)C(=O)N(C)CC(=O)N(C)[C@H]2C/C=C\CCN(C2=O)[C@@H](Cc2ccc(C(F)(F)F)cc2)C(=O)N(C)CC(=O)N[C@@H](CCc2ccc(C(F)(F)F)c(OC)c2)C(=O)N2C[C@H](OCC)C[C@H]2C(=O)N(C)C2(CCC2)C(=O)N(C)[C@@H](C(CC)CC)C(=O)N(C)[C@H](C(=O)N(C)C)CC(=O)N1C [PP2383]
- pKd [1]: 9.92
- NRAS /KRAS [2]: A (a compound having 10 or more and less than 20 is denoted as A)
- HRAS /KRAS (HRAS wild-type protein): A (a compound having 10 or more and less than 20 is denoted as A)
- pIC50 [3]: 8.28

Compound: CC[C@H](C)[C@@H]1NC(=O)[C@H](COC)N(C)C(=O)C[C@@H](C(=O)N(C)C)N(C)C(=O)[C@H](C2CCCC2)N(C)C(=O)C2(CC(C)(C)C2)NC(=O)[C@@H]2C[C@H](C)CN2C(=O)[C@H](CCc2ccc(C(F)(F)F)c(OC)c2)NC(=O)CN(C)C(=O)[C@H](Cc2ccc(C)cc2)N2CC/C=C\C[C@@H](C2=O)N(C)C(=O)[C@@H]2C[C@H](C)CN2C1=O [PP2386]
- pKd [1]: 8.92
- NRAS /KRAS [2]: A (a compound having 10 or more and less than 20 is denoted as A)
- HRAS /KRAS (HRAS wild-type protein): B (a compound having 3 or more and less than 10 is denoted as B)
- pIC50 [3]: 7.55

Compound: CC[C@H](C)[C@@H]1NC(=O)[C@H](COC)N(C)C(=O)C[C@@H](C(=O)N(C)C)N(C)C(=O)[C@H](C2CCCC2)N(C)C(=O)C2(CC(C)(C)C2)NC(=O)[C@@H]2C[C@@H](C)CN2C(=O)[C@H](CCc2ccc(C(F)(F)F)c(OC)c2)NC(=O)CN(C)C(=O)[C@H](Cc2ccc(C)cc2)N2CC/C=C\C[C@@H](C2=O)N(C)C(=O)CN(C)C1=O [PP2387]
- pKd [1]: 9.96
- NRAS /KRAS [2]: A (a compound having 10 or more and less than 20 is denoted as A)
- HRAS /KRAS (HRAS wild-type protein): A (a compound having 10 or more and less than 20 is denoted as A)
- pIC50 [3]: 7.78

Compound: CCO[C@@H]1C[C@H]2C(=O)NC3(CC(C)(C)C3)C(=O)N(C)[C@@H](C3CCCC3)C(=O)N(C)[C@H](C(=O)N(C)C)CC(=O)N(C)[C@@H](COC)C(=O)N[C@@H]([C@@H](C)CC)C(=O)N(C)CC(=O)N(C)[C@H]3C/C=C\CCN(C3=O)[C@@H](Cc3ccc(C)cc3)C(=O)N(C)CC(=O)N[C@@H](CCc3ccc(C(F)(F)F)c(Cl)c3)C(=O)N2C1 [PP2389]
- pKd [1]: 10.10
- NRAS /KRAS [2]: A (a compound having 10 or more and less than 20 is denoted as A)
- HRAS /KRAS (HRAS wild-type protein): B (a compound having 3 or more and less than 10 is denoted as B)
- pIC50 [3]: 7.67

Compound: CC[C@H](C)[C@@H]1NC(=O)[C@H](COC)N(C)C(=O)C[C@@H](C(=O)N(C)C)N(C)C(=O)[C@H](C2CCCC2)N(C)C(=O)C2(CC(C)(C)C2)NC(=O)[C@@H]2C[C@H](C)CN2C(=O)[C@H](CCc2ccc(C(F)(F)F)c(OC)c2)NC(=O)CN(C)C(=O)[C@H](Cc2ccc(C)cc2)N2CC/C=C\C[C@@H](C2=O)N(C)C(=O)[C@@H]2C[C@H](OC)CN2C1=O [PP2390]
- pKd [1]: 9.55
- NRAS /KRAS [2]: A (a compound having 10 or more and less than 20 is denoted as A)
- HRAS /KRAS (HRAS wild-type protein): B (a compound having 3 or more and less than 10 is denoted as B)
- pIC50 [3]: 7.01

Compound: CCOC[C@H]1C(=O)N[C@@H]([C@@H](C)CC)C(=O)N(C)CC(=O)N(C)[C@H]2C/C=C\CCN(C2=O)[C@@H](Cc2ccc(C)cc2)C(=O)N(C)CC(=O)N[C@@H](CCc2ccc(C(F)(F)F)c(OC)c2)C(=O)N2C[C@H](C)C[C@H]2C(=O)NC2(CC(C)(C)C2)C(=O)N(C)[C@@H](C2CCCC2)C(=O)N(C)[C@H](C(=O)N(C)C)CC(=O)N1C [PP2393]
- pKd [1]: 9.92
- NRAS /KRAS [2]: A (a compound having 10 or more and less than 20 is denoted as A)
- HRAS /KRAS (HRAS wild-type protein): A (a compound having 10 or more and less than 20 is denoted as A)
- pIC50 [3]: 7.55
